Experimental data from patent publication US10479780B2, “Aminopyrazole derivatives” (Chugai Seiyaku Kabushiki Kaisha, priority 2015, dated 2019).
Like-named read-outs stand apart in the source and are kept apart here. Blank lines part the entries; values can stand above or below the compound they belong to.

Assays:
Assay type in all cases: biochemical
human Src enzyme = target: T1, human Src enzyme (Homo sapiens, UniProt P12931); experiment: Src enzyme inhibitory activity (time-resolved fluorometry, biotinylated peptide phosphorylation); details: read-out: SRC_IC50
T1 construct: purchased Carna Biosciences, Inc. 08-173
Summary of the method: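 Compounds were tested for blocking tyrosine phosphorylation of a biotinylated peptide substrate by recombinant human Src. Phosphorylated product was quantified by time-resolved fluorometry using europium cryptate and XL665 conjugates, and IC50 was calculated against the compound-free control.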

human Yes1 enzyme = target: T2, human Yes1 enzyme (Homo sapiens, UniProt P07947); experiment: Yes1 enzyme inhibitory activity (time-resolved fluorometry, biotinylated peptide phosphorylation); details: read-out: YES_IC50
T2 construct: made in house
Summary of the method: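 Inhibition was expressed against a compound-free control to give IC50, using TR-FRET read-out (Eu-cryptate anti-pTyr antibody, streptavidin-XL665).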

human Lck enzyme = target: T3, human Lck enzyme (Homo sapiens, UniProt P06239); experiment: Lck enzyme inhibitory activity (time-resolved fluorometry, biotinylated peptide phosphorylation); details: read-out: LCK_IC50
T3 construct: purchased Carna Biosciences, Inc. 08-170
Summary of the method: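 Readout pairs a europium cryptate-labelled anti-phosphotyrosine antibody with XL665-streptavidin, measured by time-resolved fluorescence. IC50 derived from percent inhibition against untreated controls.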

[1] = biotinylated peptide phosphorylation

T2 sequence (P07947 whole entry): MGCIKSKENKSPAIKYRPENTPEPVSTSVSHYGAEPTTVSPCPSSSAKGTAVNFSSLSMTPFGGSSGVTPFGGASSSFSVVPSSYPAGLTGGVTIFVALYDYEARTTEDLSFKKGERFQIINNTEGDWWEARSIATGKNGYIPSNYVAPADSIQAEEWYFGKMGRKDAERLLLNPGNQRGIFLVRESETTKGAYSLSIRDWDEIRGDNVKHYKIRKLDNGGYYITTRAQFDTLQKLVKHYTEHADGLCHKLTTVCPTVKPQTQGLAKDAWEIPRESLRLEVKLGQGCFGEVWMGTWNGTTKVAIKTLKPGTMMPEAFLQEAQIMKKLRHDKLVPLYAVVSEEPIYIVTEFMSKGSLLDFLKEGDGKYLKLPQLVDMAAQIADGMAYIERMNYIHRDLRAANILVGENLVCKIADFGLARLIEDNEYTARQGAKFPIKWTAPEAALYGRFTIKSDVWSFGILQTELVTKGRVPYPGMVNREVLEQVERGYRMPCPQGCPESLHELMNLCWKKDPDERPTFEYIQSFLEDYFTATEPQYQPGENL
T1 sequence (P12931 whole entry): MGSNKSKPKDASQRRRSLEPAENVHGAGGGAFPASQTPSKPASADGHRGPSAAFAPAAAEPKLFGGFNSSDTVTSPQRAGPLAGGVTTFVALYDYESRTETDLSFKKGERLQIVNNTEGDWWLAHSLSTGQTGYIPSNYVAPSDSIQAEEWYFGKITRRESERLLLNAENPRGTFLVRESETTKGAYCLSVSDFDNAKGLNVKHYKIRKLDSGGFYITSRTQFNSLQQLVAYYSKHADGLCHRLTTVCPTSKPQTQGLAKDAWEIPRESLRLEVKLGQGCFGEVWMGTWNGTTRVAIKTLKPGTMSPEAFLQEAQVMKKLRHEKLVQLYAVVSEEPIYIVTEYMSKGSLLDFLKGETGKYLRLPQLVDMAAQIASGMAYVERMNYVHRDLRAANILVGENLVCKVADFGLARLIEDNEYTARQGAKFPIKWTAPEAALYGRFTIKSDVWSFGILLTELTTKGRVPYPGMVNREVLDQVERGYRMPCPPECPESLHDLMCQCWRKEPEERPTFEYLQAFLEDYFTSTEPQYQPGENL
T3 sequence (P06239 whole entry): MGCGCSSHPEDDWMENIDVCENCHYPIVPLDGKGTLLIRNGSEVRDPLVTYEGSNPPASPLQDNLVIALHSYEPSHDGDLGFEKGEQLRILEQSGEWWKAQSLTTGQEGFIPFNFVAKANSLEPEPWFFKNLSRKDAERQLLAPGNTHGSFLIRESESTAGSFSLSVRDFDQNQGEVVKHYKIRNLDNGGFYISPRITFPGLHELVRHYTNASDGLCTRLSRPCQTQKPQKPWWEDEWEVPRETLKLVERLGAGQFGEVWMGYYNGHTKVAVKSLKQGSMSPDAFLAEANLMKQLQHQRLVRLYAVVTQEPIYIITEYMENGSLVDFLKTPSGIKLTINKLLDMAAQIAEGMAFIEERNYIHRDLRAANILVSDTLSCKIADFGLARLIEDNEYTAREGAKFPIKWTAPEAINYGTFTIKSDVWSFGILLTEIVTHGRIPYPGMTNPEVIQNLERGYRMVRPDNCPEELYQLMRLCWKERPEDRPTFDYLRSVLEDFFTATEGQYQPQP

Compound: Cc1cc(Oc2c(F)cccc2F)ncc1-n1ncc(C(=O)c2cc3cc(OCC(F)F)c(N4CCC(N5CCOCC5)CC4)cc3[nH]2)c1N [Example 4-25-027, [5-amino-1-[6-(2,6-difluorophenoxy)-4-methylpyridin-3-yl]pyrazol-4-yl]-[5-(2,2-difluoroethoxy)-6-(4-morpholin-4-ylpiperidin-1-yl)-1H-indol-2-yl]methanone]
IC50 (human Src enzyme; [1]): 23 nM
IC50 (human Yes1 enzyme; [1]): 0.8 nM
IC50 (human Lck enzyme; [1]): 2.1 nM

Compound: Cc1cc(Oc2ccccc2F)ncc1-n1ncc(C(=O)c2cc3cc(C4CC4)c(NS(=O)(=O)CCCF)cc3[nH]2)c1N [Example 5-1-428, N-[2-[5-amino-1-[6-(2-fluorophenoxy)-4-methylpyridin-3-yl]pyrazole-4-carbonyl]-5-cyolopropyl-1H-indol-6-yl]-3-fluoropropane-1-sulfonamide]
IC50 (human Src enzyme; [1]): 170 nM
IC50 (human Yes1 enzyme; [1]): 3.1 nM
IC50 (human Lck enzyme; [1]): 46 nM

Compound: Cc1cc(Oc2ccccc2F)ccc1-n1ncc(C(=O)c2cc3cc(OCC(F)F)c(N4CCCC4=O)cc3[nH]2)c1N [Example 4-21-002, 1-[2-[5-amino-1-[4-(2-fluorophenoxy)-2-methylphenyl]pyrazole-4-carbonyl]-5-(2,2-difluoroethoxy)-1H-indol-6-yl]pyrrolidin-2-one]
IC50 (human Src enzyme; [1]): 5.4 nM
IC50 (human Yes1 enzyme; [1]): 0.89 nM
IC50 (human Lck enzyme; [1]): 2.8 nM

Compound: COc1cccc(S(=O)(=O)Nc2cc3[nH]c(C(=O)c4cnn(-c5cnc(Oc6ccccc6F)cc5C)c4N)cc3cc2C)c1 [Example 5-1-439, N-[2-[5-amino-1-[6-(2-fluorophenoxy)-4-methylpyridin-3-yl]pyrazole-4-carbonyl]-5-methyl-1H-indol-6-yl]-3-methoxybenzenesulfonamide]
IC50 (human Src enzyme; [1]): 690 nM
IC50 (human Yes1 enzyme; [1]): 7.3 nM
IC50 (human Lck enzyme; [1]): 310 nM

Compound: CC(C)N1CCC(c2cc3[nH]c(C(=O)c4cnn(-c5ccc(Oc6cccc(Cl)c6)cc5)c4N)cc3cc2F)CC1 [Example 5-1-008, [5-amino-1-[4-(3-chlorophenoxy)phenyl]pyrazol-4-yl]-[5-fluoro-6-(1-propan-2-ylpiperidin-4-yl)-1H-indol-2-yl]methanone]
IC50 (human Src enzyme): 60 nM
IC50 (human Yes1 enzyme): 2.7 nM
IC50 (human Lck enzyme): 4.6 nM

Compound: Cc1cc(Oc2ccccc2F)ncc1-n1ncc(C(=O)c2cc3cc(F)c(NS(=O)(=O)c4cncc(Cl)c4)cc3[nH]2)c1N [Example 5-1-544, N-[2-[5-amino-1-[6-(2-fluorophenoxy)-4-methylpyridin-3-yl]pyrazole-4-carbonyl]-5-fluoro-1H-indol-6-yl]-5-chloropyridine-3-sulfonamide]
IC50 (human Src enzyme; [1]): 680 nM
IC50 (human Yes1 enzyme; [1]): 8.4 nM
IC50 (human Lck enzyme; [1]): 330 nM

Compound: Cc1cccc(S(=O)(=O)Nc2cc3[nH]c(C(=O)c4cnn(-c5cnc(Oc6ccccc6F)cc5C)c4N)cc3cc2F)n1 [Example 5-1-534, N-[2-[5-amino-1-[6-(2-fluorophenoxy)-4-methylpyridin-3-yl]pyrazole-4-carbonyl]-5-fluoro-1H-indol-6-yl]-6-methylpyridine-2-sulfonamide]
IC50 (human Src enzyme; [1]): 640 nM
IC50 (human Yes1 enzyme; [1]): 5.1 nM
IC50 (human Lck enzyme; [1]): 170 nM

Compound: Nc1c(C(=O)c2cc3cc(F)c(NS(=O)(=O)CCCF)cc3[nH]2)cnn1-c1ccc(Oc2ncccc2F)cc1F [Example 5-1-035, N-[2-[5-amino-1-[2-fluoro-4-(3-fluoropyridin-2-yl)oxyphenyl]pyrazole-4-carbonyl]-5-fluoro-1H-indol-6-yl]-3-fluoropropane-1-sulfonamide]
IC50 (human Src enzyme): 85 nM
IC50 (human Yes1 enzyme): 0.68 nM
IC50 (human Lck enzyme): 35 nM

Continued, values first:

IC50 (human Src enzyme): 580 nM
IC50 (human Yes1 enzyme): 8.5 nM
IC50 (human Lck enzyme): 46 nM
Compound: Cc1cc(Oc2c(F)cccc2F)ncc1-n1ncc(C(=O)c2cc3cc(OCC(F)F)c(NS(=O)(=O)c4ccc(F)cc4)cc3[nH]2)c1N [Example 5-1-297, N-[2-[5-amino-1-[6-(2,6-difluorophenoxy)-4-methylpyridin-3-yl]pyrazole-4-carbonyl]-5-(2,2-difluoroethoxy)-1H-indol-6-yl]-4-fluorobenzenesulfonamide]

IC50 (human Src enzyme; [1]): 22 nM
IC50 (human Yes1 enzyme; [1]): 0.52 nM
IC50 (human Lck enzyme; [1]): 15 nM
Compound: Nc1c(C(=O)c2cc3cc(F)c(NS(=O)(=O)CCCF)cc3[nH]2)cnn1-c1ccc(Oc2ccccn2)cc1Cl [Example 4-2-018, N-[2-[5-amino-1-(2-chloro-4-pyridin-2-yloxyphenyl)pyrazole-4-carbonyl]-5-fluoro-1H-indol-6-yl]-3-fluoropropane-1-sulfonamide]

IC50 (human Src enzyme; [1]): 5.8 nM
IC50 (human Yes1 enzyme; [1]): 0.36 nM
IC50 (human Lck enzyme; [1]): 1.4 nM
Compound: COc1cc2[nH]c(C(=O)c3cnn(-c4cnc(Oc5ccccc5F)cc4C)c3N)cc2cc1NS(C)(=O)=O [Example 4-1-014, N-[2-[5-amino-1-[6-(2-fluorophenoxy)-4-methylpyridin-3-yl]pyrazole-4-carbonyl]-6-methoxy-1H-indol-5-yl]methanesulfonamide]

IC50 (human Src enzyme): 730 nM
IC50 (human Yes1 enzyme): 20 nM
IC50 (human Lck enzyme): 270 nM
Compound: Nc1c(C(=O)c2cc3cc(F)c(NS(=O)(=O)C4CC4)cc3[nH]2)cnn1-c1c(Cl)cc(Oc2ccccc2F)cc1Cl [Example 5-1-025, N-[2-[5-amino-1-[2,6-dichloro-4-(2-fluorophenoxy)phenyl]pyrazole-4-carbonyl]-5-fluoro-1H-indol-6-yl]cyclopropanesulfonamide]

IC50 (human Src enzyme; [1]): 2400 nM
IC50 (human Yes1 enzyme; [1]): 16 nM
IC50 (human Lck enzyme; [1]): 690 nM
Compound: Cc1cc(Oc2ccccc2F)ncc1-n1ncc(C(=O)c2cc3cc(F)c(NS(=O)(=O)c4cccc(Cl)c4)cc3[nH]2)c1N [Example 5-1-560, N-[2-[5-amino-1-[6-(2-fluorophenoxy)-4-methylpyridin-3-yl]pyrazole-4-carbonyl]-5-fluoro-1H-indol-6-yl]-3-chlorobenzenesulfonamide]

IC50 (human Src enzyme; [1]): 26 nM
IC50 (human Yes1 enzyme; [1]): 1.3 nM
IC50 (human Lck enzyme; [1]): 7.1 nM
Compound: Cc1cc2cc(C(=O)c3cnn(-c4cnc(Oc5c(F)cccc5F)cc4C)c3N)[nH]c2cc1NS(=O)(=O)CC(=O)N1CCOCC1 [Example 4-10-010, N-[2-[5-amino-1-[6-(2,6-difluorophenoxy)-4-methylpyridin-3-yl]pyrazole-4-carbonyl]-5-methyl-1H-indol-6-yl]-2-morpholin-4-yl-2-oxoethanesulfonamide]

IC50 (human Src enzyme): 7.2 nM
IC50 (human Yes1 enzyme): 0.72 nM
IC50 (human Lck enzyme): 7 nM
Compound: Cc1cc(Oc2ccccc2F)ccc1-n1ncc(C(=O)c2cc3cc(OC(F)F)c(N)cc3[nH]2)c1N [Example 5-1-083, [6-amino-5-(difluoromethoxy)-1H-indol-2-yl]-[5-amino-1-[4-(2-fluorophenoxy)-2-methylphenyl]pyrazol-4-yl]methanone]

IC50 (human Src enzyme): 62 nM
IC50 (human Yes1 enzyme): 2.3 nM
IC50 (human Lck enzyme): 5.6 nM
Compound: Cc1cc(Oc2c(F)cccc2F)ncc1-n1ncc(C(=O)c2cc3cc(F)c(N(C(C)C)S(C)(=O)=O)cc3[nH]2)c1N [Example 5-1-067, N-[2-[5-amino-1-[6-(2,6-difluorophenoxy)-4-methylpyridin-3-yl]pyrazole-4-carbonyl]-5-fluoro-1H-indol-6-yl]-N-propan-2-ylmethanesulfonamide]

IC50 (human Src enzyme; [1]): 400 nM
IC50 (human Yes1 enzyme; [1]): 3.1 nM
IC50 (human Lck enzyme; [1]): 72 nM
Compound: Cc1cc2cc(C(=O)c3cnn(-c4ccc(Oc5ccccc5F)cc4C)c3N)[nH]c2cc1NS(=O)(=O)c1cccc(Cl)n1 [Example 5-1-525, N-[2-[5-amino-1-[4-(2-fluorophenoxy)-2-methylphenyl]pyrazole-4-carbonyl]-5-methyl-1H-indol-6-yl]-6-chloropyridine-2-sulfonamide]
